In patent US20040229960A1, “Compositions and methods of administering tubulin binding agents for the treatment of ocular diseases” (priority 2001, published 2004):

Legend:
[1] = Biodistribution of 14C-CA4P following topical administration of a gel; format: in vivo, New Zealand rabbits
Method: (§1) ^14C-CA4P (OXiGENE Inc., Watertown, Mass.) was resuspended in 100 ul volume of saline solution and injected with a 30 G needle into the right eyes of anesthesized male New Zealand rabbits (4 months old, 1.8-2.5 kg, n=3 per sample). Three different concentrations of ^14C-CA4P were tested (1, 10, 100 mg/ml) corresponding to doses of 1, 5, and 5 uCi of applied radioactivity respectively. A blank control group was also included. Rabbits were anaesthetized at 1, 6, 24, and 48 hours for blood sampling. After blood collection, the animals were euthanized by Phenobarbital injection and the treated right eyes were removed from all test animals. Ocular tissue samples were dissected from the cornea, aqueous humor, vitreous humor, choroid, or retina, placed in 20-mi glass scintillation vials, vortexed, and incubated for 24 hrs with 500 ul digesting fluid. Plasma was separated from whole blood by centrifugation (1,800 g for 10 minutes). Both ocular tissue samples and plasma were incubated at room temperature with 16 ml of Hionic Fluor™ scintillation fluid for a period of 24 hours prior to radioactivity counting. Each sample was counted for 5 minutes in a Betamatic V counter (Bio-Tek Kontron Instruments, St Quentin en Yvelines, France). The conversion of counts per minute (“cpm”) into disintegrations per minute (“dpm”) was performed automatically by the beta-counter, using calibration curves obtained from ^14C-standards and quenching curves from the respective blank matrices spiked with ^14C-standards. The concentration of drug was determined according to nanogram equivalents of CA4P (ng-Eq/g of tissue) which was calculated from the measured dpm value, the weight of the tissue specimen, and the specific activity of the drug (0.37 mCi/mg), followed by subtraction of the corresponding background value from control eye tissue. A tissue concentration of 1 uM CA4P is equal to […] tissue.
Topical gels and solutions were developed for use as topical formulation suitable for the topical delivery of CA4P to the surface of the eye. Topical solutions (1, 3, and 10%) was directly prepared in 0.9% NaCl (Aguettant, Lyon, France) and sterilized with 0.2 um filter (pH 6.4 to 8.5, osmolarity 290 to 459 mosmol/kg H2O. Low viscosity topical gels (1,3,and 10%) were prepared in 0.5% carboxymethylcellulose (Sigma Aldrich Chimie, St. Quentin Fallavier Cedex, France) with 0.9% NaCl. The physicochemical specifications of each gel are listed in Table 5
Topical formulations were applied to the surface of right eyes at an applied dose of 5 uCi in a volume of 50 ul. Cornea was sampled instead of sclera. Samples were taken at […] and 24 hours.

[2] = tested on: ocular neovascularization; assay: LHP-induced ocular neovascularization, intravenous treatment; format: in vivo, rabbit; conditions: 40 mg/kg i.v. once a day for five days; eyes examined seven days later
Method: To simulate pathogenic ocular angiogenesis, ocular neovascularization was induced by administration of lipid hydroperoxide (LHP) by intra-corneal injection at a dosage of 30 μg to rabbit eyes. Seven to 14 days later, ocular vessels formed in the injected eyes due to LHP insult. The subjects were divided into two groups; those of one group were given combretastatin A4 disodium phosphate by intravenous administration at a dosage of 40 mg/kg once a day for five days, while a vehicle without combretastatin A4 disodium phosphate was administered to the other group by i.v. administration as a dosage of water for the same time period. The eyes of both groups were examined seven days later.

[3] = tested on: corneal neovascularization; assay: LHP-induced rabbit corneal neovascularization model, IP treatment; format: in vivo, New Zealand rabbits; conditions: for Effect on neovascular growth: 50 mg/kg IP
Excerpt: To assess the ability of CA4P to inhibit corneal neovascularization, a rabbit corneal model was used in which neovascularization was induced by linoleic acid hydroperoxide (“LHP”) injection (Ueda et al., Angiogenesis, 1997, 1: 174-184). Injection of LHP in the corneal stroma stimulates the localized production of angiogenic cytokines within the cornea. Blood vessels in the circumlimbal plexus respond to the angiogenic stimulation by migrating towards the site of LHP injection. Therapeutic efficacy of systemically delivered CA4P was assessed by measuring the length of these proliferating vessels.
Vessels grew at a rate of 0.25 mm/day. Groups 2 and 4 were injected intraperitoneally (“IP”) with CA4P (50 mg/kg) after 3 and 10 days of vessel growth respectively. Treatment groups 1 and 3 were injected with saline control on day 3 and day 10 post-LHP injection. Surface photographs of the cornea were taken at 0, 3, 6, 12, 17, and 28 days post-LHP injection. Following each photographic session, corneal vessels were observed under an operating microscope and Castroviejo calipers were used to measure the length of the most prominent vessel.
In addition to longest-vessel measurements, histology analysis was undertaken on day 28 to assess the amount of dissolved extracellular matrix, vessel wall thickness, and degree of vessel branching. Euthanized animals were enucleated and the vitreous was removed from each eye prior to fixation in 4% paraformaldehyde for 45 minutes and 0.2M cacodylate buffer (pH 7.4) overnight. Eyes were embedded in paraffin, sectioned to a 3 um thickness, and stained with […] and eosin.

[4] = Biodistribution of 14C-CA4P following periocular injection; format: in vivo, New Zealand rabbits
Method: as §1

[5] = early intervention, 50 mg/kg IP qd x 5 from Day 3 (Group 2)

With COc1ccc(/C=C\c2cc(OC)c(OC)c(OC)c2)cc1OP(=O)([O-])[O-].[Na+].[Na+] [CA4P, combretastatin A4 disodium phosphate] the Cmax ([1]; aqueous humor, 1% topical gel) was 2.4 µM, the Cmax ([1]; aqueous humor, 3% topical gel) was 8.2 µM and the Cmax ([1]; aqueous humor, 10% topical gel) was 13 µM. The Cmax ([1]; choroid, 1% topical gel) was 2.8 µM, the Cmax ([1]; choroid, 3% topical gel) was 10.7 µM and the Cmax ([1]; choroid, 10% topical gel) was 22.5 µM. The “Concentration of drug delivered” value ([1]; cornea, retina and choroid, all three gel formulations) was greater than 1 µM, the Cmax ([1]; cornea, 1% topical gel, 50 ul) was 82 µM and the Cmax ([1]; cornea, 3% topical gel, 50 ul) was 118 µM. For the same molecule, the Cmax ([1]; cornea, 10% topical gel, 50 ul) was 292 µM, the Cmax ([1]; plasma, 1% topical gel) was 0.09 µM and the Cmax ([1]; plasma, 3% topical gel) was 0.56 µM. It also gave a Cmax ([1]; plasma, 10% topical gel) of 1.63 µM, a Cmax ([1]; retina, 1% topical gel) of 1 µM and a Cmax ([1]; retina, 3% topical gel) of 5.8 µM. For the same molecule, the Cmax ([1]; retina, 10% topical gel) was 5.8 µM, the “Time of highest concentrations of drug in the eye” value ([1]; topical gel) was “within the first hour” and the Reduction of vessels [2] was no less than 40%. For the same molecule, the “Histology of corneal vessels” value ([3]; Day 28, stained sections, vs vehicle (round and numerous)) was “vessels appeared narrow and less numerous”, the “Vessel Length on Day 6” value [3, 5] was 0.7 ± 0.16 mm and the “Vessel Length on Day 12” value [3, 5] was 0.5 ± 0.61 mm. For the same molecule, the “Vessel Length on Day 3” value ([3]; early intervention, 50 mg/kg IP qd x 5 from Day 3 (Group 2), Day 3 = treatment start) was 0.6 ± 0.12 mm, the “Effect on neovascular growth” value ([3]; intervention 10 days after angiogenic stimulation) was “the effect was the same” and the “Effect on neovascular growth” value ([3]; intervention within 3 days of angiogenic stimulation) was “complete inhibition of neovascular growth”. For the same molecule, the “Vessel Length on Day 12” value ([3]; late intervention, 50 mg/kg IP from Day 10 (Group 4), first column) was 2.6 ± 0.29 mm, the “Vessel Length on Day 12” value ([3]; late intervention, 50 mg/kg IP from Day 10 (Group 4), second column) was 2.8 ± 0.49 mm and the “Regression rate of preformed vessels in the eye” value ([3]; rabbit eyes, preliminary work (FIGS. 3, 4)) was “accelerated the regression rate of preformed vessels”. For the same molecule, the Cmax ([4]; choroid, 1 mg/ml periocular) was 14.3 µM, the Cmax ([4]; choroid, 10 mg/ml periocular) was 74.5 µM and the Cmax ([4]; choroid, 100 mg/ml periocular) was 1040 µM. For the same molecule, the “Time of highest concentrations of drug in the eye” value ([4]; periocular injection) was “within the first hour”, the Cmax ([4]; plasma, 1 mg/ml periocular) was 0.07 µM and the Cmax ([4]; plasma, 10 mg/ml periocular) was 0.79 µM. The Cmax ([4]; plasma, 100 mg/ml periocular) was 12.3 µM, the “Concentration of drug delivered” value ([4]; retina and choroid, all administered doses, periocular) was greater than 1 µM and the Cmax ([4]; retina, 1 mg/ml periocular) was 4.4 µM. The Cmax ([4]; retina, 10 mg/ml periocular) was 54 µM, the Cmax ([4]; retina, 100 mg/ml periocular) was 169 µM and the Cmax ([4]; sclera, 1 mg/ml periocular) was 18 µM. It also gave a Cmax ([4]; sclera, 10 mg/ml periocular) of 280 µM, a Cmax ([4]; sclera, 100 mg/ml periocular) of 3370 µM and a Cmax ([4]; vitreous, 1 mg/ml periocular) of 0.03 µM. For the same molecule, the Cmax ([4]; vitreous, 10 mg/ml periocular) was 0.34 µM and the Cmax ([4]; vitreous, 100 mg/ml periocular) was 3.35 µM.
